Source: patent US8110571B2, “Benzimidazole and benzothiazole derivatives, method for preparing same, use thereof as drugs, pharmaceutical compositions and novel use especially as c-MET inhibitors” (Aventis Pharma S.A., priority 2005, dated 2012)
Structures can show the parent of a compound that is named as a salt.

SMILES	melting point [°C]
CN1CCN(c2ccc(CNC(=O)Nc3nc4ccc(OS(=O)(=O)c5c(Cl)cccc5Cl)cc4s3)cc2)CC1 (as salt: benzene-sulfonate) [Example 52, 2-({[4-(4-methylpiperazin-1-yl)benzyl]carbamoyl}amino)-1,3-benzothiazol-6-yl 2,6-dichlorobenzene-sulfonate]	88
COCCNC(=O)Nc1nc2cc(OS(=O)(=O)c3c(Cl)cccc3Cl)ccc2[nH]1 (as salt: benzenesulfonate) [Example 1, 2-{[(2-methoxyethyl)carbamoyl]amino}-1H-benzimidazol-5-yl 2,6-dichlorobenzenesulfonate]	171
COCCNC(=O)Nc1nc2cc(OS(=O)(=O)c3c(C)cccc3Cl)ccc2[nH]1 (as salt: benzenesulfonate) [Example 2, 2-{[(2-Methoxyethyl)carbamoyl]amino}-1H-benzimidazol-5-yl 2-chloro-6-methylbenzenesulfonate]	138
COCCNC(=O)Nc1nc2cc(OS(=O)(=O)c3c(C)cc(C)cc3C)ccc2[nH]1 (as salt: benzenesulfonate) [Example 3, 2-{[(2-Methoxyethyl)carbamoyl]amino}-1H-benzimidazol-5-yl 2,4,6-trimethylbenzenesulfonate]	140
O=C(NCCN1CCOCC1)Nc1nc2cc(OS(=O)(=O)c3c(Cl)cccc3Cl)ccc2[nH]1 (as salt: benzenesulfonate) [Example 5, 2-{[(2-Morpholin-4-ylethyl)carbamoyl]amino}-1H-benzimidazol-5-yl 2,6-dichlorobenzenesulfonate]	149
O=C(NCCN1CCOCC1)Nc1nc2cc(OS(=O)(=O)c3c(F)cccc3F)ccc2[nH]1 (as salt: benzenesulfonate) [Example 9, 2-{[(2-Morpholin-4-ylethyl)carbamoyl]amino}-1H-benzimidazol-5-yl 2,6-difluorobenzenesulfonate]	190 to 192
O=C(Nc1nc2cc(OS(=O)(=O)c3c(Cl)cccc3Cl)ccc2[nH]1)NC1CC1 (as salt: benzenesulfonate) [Example 12, 2-[(Cyclopropylcarbamoyl)amino]-1H-benzimidazol-5-yl 2,6-dichlorobenzenesulfonate]	160 to 165
O=C(NCc1ccccn1)Nc1nc2cc(OS(=O)(=O)c3c(Cl)cccc3Cl)ccc2[nH]1 (as salt: benzenesulfonate) [Example 15, 2-{[(Pyridin-2-ylmethyl)carbamoyl]amino}-1H-benzimidazol-5-yl 2,6-dichlorobenzenesulfonate]	204
O=C(NCc1cccnc1)Nc1nc2cc(OS(=O)(=O)c3c(Cl)cccc3Cl)ccc2[nH]1 (as salt: benzenesulfonate) [Example 16, 2-{[(Pyridin-3-ylmethyl)carbamoyl]amino}-1H-benzimidazol-5-yl 2,6-dichlorobenzenesulfonate]	210
O=C(NCc1ccncc1)Nc1nc2cc(OS(=O)(=O)c3c(Cl)cccc3Cl)ccc2[nH]1 (as salt: benzenesulfonate) [Example 17, 2-{[(Pyridin-4-ylmethyl)carbamoyl]amino}-1H-benzimidazol-5-yl 2,6-dichlorobenzenesulfonate]	165 to 170
O=C(NCc1ccccc1)Nc1nc2cc(OS(=O)(=O)c3c(Cl)cccc3Cl)ccc2[nH]1 (as salt: benzenesulfonate) [Example 18, 2-[(Benzylcarbamoyl)amino]-1H-benzimidazol-5-yl 2,6-dichlorobenzenesulfonate]	195
O=C(NCCc1cccnc1)Nc1nc2cc(OS(=O)(=O)c3c(Cl)cccc3Cl)ccc2[nH]1 (as salt: benzenesulfonate) [Example 19, 2-{[(2-Pyridin-3-ylethyl)carbamoyl]amino}-1H-benzimidazol-5-yl 2,6-dichlorobenzenesulfonate]	131
CN1CCN(CCNC(=O)Nc2nc3cc(OS(=O)(=O)c4c(Cl)cccc4Cl)ccc3[nH]2)CC1 (as salt: benzenesulfonate) [Example 20, 2-({[2-(4-Methylpiperazin-1-yl)ethyl]carbamoyl}amino)-1H-benzimidazol-5-yl 2,6-dichlorobenzenesulfonate]	180
O=C(NCCN1CCNCC1)Nc1nc2cc(OS(=O)(=O)c3c(Cl)cccc3Cl)ccc2[nH]1 (as salt: benzenesulfonate) [Example 21, 2-{[(2-piperazin-1-ylethyl)carbamoyl]amino}-1H-benzimidazol-5-yl 2,6-dichlorobenzenesulfonate]	145 to 150
O=C(NCCC1CCNCC1)Nc1nc2cc(OS(=O)(=O)c3c(Cl)cccc3Cl)ccc2[nH]1 (as salt: benzenesulfonate) [Example 22, 2-{[(2-Piperidin-4-ylethyl)carbamoyl]amino}-1H-benzimidazol-5-yl 2,6-dichlorobenzenesulfonate]	165
CC(C)(C)OC(=O)Nc1nc2cc(OS(=O)(=O)c3c(Cl)cccc3Cl)ccc2[nH]1 (as salt: benzenesulfonate) [Example 23, 2-[(tert-Butoxycarbonyl)amino]-1H-benzimidazol-5-yl 2,6-dichlorobenzenesulfonate]	205

SMILES	melting point [°C]
O=C(Nc1nc2cc(OS(=O)(=O)c3c(Cl)cccc3Cl)ccc2[nH]1)C1CC1 (as salt: benzenesulfonate) [Example 24, 2-[(Cyclopropylcarbonyl)amino]-1H-benzimidazol-5-yl 2,6-dichlorobenzenesulfonate]	242
O=C(CCc1cccnc1)Nc1nc2cc(OS(=O)(=O)c3c(Cl)cccc3Cl)ccc2[nH]1 (as salt: benzenesulfonate) [Example 25, 2-[(3-Pyridin-3-ylpropanoyl)amino]-1H-benzimidazol-5-yl 2,6-dichlorobenzenesulfonate]	188
O=C(CCC1CCN(C(=O)c2ccccc2)CC1)Nc1nc2cc(OS(=O)(=O)c3c(Cl)cccc3Cl)ccc2[nH]1 (as salt: benzenesulfonate) [Example 26, 2-{[3-(1-Benzoylpiperidin-4-yl)propanoyl]amino}-1H-benzimidazol-5-yl 2,6-dichlorobenzenesulfonate]	135
O=C(CCC1CCNCC1)Nc1nc2cc(OS(=O)(=O)c3c(Cl)cccc3Cl)ccc2[nH]1 (as salt: benzenesulfonate) [Example 27, 2-[(3-Piperidin-4-ylpropanoyl)amino]-1H-benzimidazol-5-yl 2,6-dichlorobenzenesulfonate]	135
O=C(Nc1nc2cc(OS(=O)(=O)c3c(F)cccc3F)ccc2[nH]1)C1CC1 (as salt: benzenesulfonate) [Example 29, 2-[(Cyclopropylcarbonyl)amino]-1H-benzimidazol-5-yl 2,6-difluorobenzenesulfonate]	174
O=C(NCc1ccccn1)Nc1nc2ccc(OS(=O)(=O)c3c(Cl)cccc3Cl)cc2s1 (as salt: benzenesulfonate) [Example 30, 2-{[(Pyridin-2-ylmethyl)carbamoyl]amino}-1,3-benzothiazol-6-yl 2,6-dichlorobenzenesulfonate]	118
O=C(Nc1nc2ccc(OS(=O)(=O)c3c(Cl)cccc3Cl)cc2s1)NC1CC1 (as salt: benzenesulfonate) [Example 31, 2-[(Cyclopropylcarbamoyl)amino]-1,3-benzothiazol-6-yl 2,6-dichlorobenzenesulfonate]	128
O=C(NCCC1CCN(Cc2ccccc2)CC1)Nc1nc2ccc(OS(=O)(=O)c3c(Cl)cccc3Cl)cc2s1 (as salt: benzenesulfonate) [Example 33, 2-({[2-(1-Benzylpiperidin-4-yl)ethyl]carbamoyl}amino)-1,3-benzothiazol-6-yl 2,6-dichlorobenzenesulfonate]	105
O=C(NCCN1CCN(Cc2ccccc2)CC1)Nc1nc2ccc(OS(=O)(=O)c3c(Cl)cccc3Cl)cc2s1 (as salt: benzenesulfonate) [Example 34, 2-({[2-(4-Benzylpiperazin-1-yl)ethyl]carbamoyl}amino)-1,3-benzothiazol-6-yl 2,6-dichlorobenzenesulfonate]	102
O=C(NCCN1CCNCC1)Nc1nc2ccc(OS(=O)(=O)c3c(Cl)cccc3Cl)cc2s1 (as salt: benzenesulfonate) [Example 36, 2-{[(2-piperazin-1-ylethyl)carbamoyl]amino}-1,3-benzothiazol-6-yl 2,6-dichlorobenzenesulfonate]	158
O=C(NCCN1CCOCC1)Nc1nc2ccc(OS(=O)(=O)c3ccccc3Cl)cc2s1 (as salt: benzenesulfonate) [Example 40, 2-{[(2-Morpholin-4-ylethyl)carbamoyl]amino}-1,3-benzothiazol-6-yl 2-chlorobenzenesulfonate]	100
O=C(Nc1nc2ccc(OS(=O)(=O)c3c(F)cccc3F)cc2s1)C1CC1 (as salt: benzenesulfonate) [Example 41, 2-[(Cyclopropylcarbonyl)amino]-1,3-benzothiazol-6-yl 2,6-difluorobenzenesulfonate]	145
O=C(CCc1cccnc1)Nc1nc2ccc(OS(=O)(=O)c3c(Cl)cccc3Cl)cc2s1 (as salt: benzenesulfonate) [Example 43, 2-[(3-Pyridin-3-ylpropanoyl)amino]-1,3-benzothiazol-6-yl 2,6-dichlorobenzenesulfonate]	240
O=C(CCN1CCOCC1)Nc1nc2ccc(OS(=O)(=O)c3c(Cl)cccc3Cl)cc2s1 (as salt: benzenesulfonate) [Example 44, 2-[(3-Morpholin-4-ylpropanoyl)amino]-1,3-benzothiazol-6-yl 2,6-dichlorobenzenesulfonate]	179
O=C(Cc1cccnc1)Nc1nc2ccc(OS(=O)(=O)c3c(Cl)cccc3Cl)cc2s1 (as salt: benzenesulfonate) [Example 45, 2-[(Pyridin-3-ylacetyl)amino]-1,3-benzothiazol-6-yl 2,6-dichlorobenzenesulfonate]	218
O=C(CCC1CCNCC1)Nc1nc2ccc(OS(=O)(=O)c3c(Cl)cccc3Cl)cc2s1 (as salt: benzenesulfonate) [Example 47, 2-[(3-Piperidin-4-ylpropanoyl)amino]-1,3-benzothiazol-6-yl 2,6-dichlorobenzenesulfonate]	134
